Data set [1] has as its target Serine/threonine-protein kinase Chk1 (Homo sapiens) (UniProt O14757). Briefly: Inhibition of CHK1 (unknown origin) at 10 uM.
Data set [2] is described as follows: Volume of distribution in Sprague-Dawley rat at 1 mg/kg, iv after 0.25 to 24 hrs. Type of data set: ADME, organism-based. Conditions: in vivo.
In data set [3] the target is Serine/threonine-protein kinase pim-1 (Homo sapiens) (UniProt P11309). Briefly: Inhibition of PIM1 (unknown origin) at 10 uM.
Data set [4] has as its target Mitogen-activated protein kinase 8 (Homo sapiens) (UniProt P45983). Briefly: Inhibition of JNK1 (unknown origin) at 10 uM.
The target in data set [5] is Ribosomal protein S6 kinase beta-1 (Homo sapiens) (UniProt P23443). As to the kind of experiment: Inhibition of P70S6K (unknown origin) at 10 uM.
Chain of Ribosomal protein S6 kinase beta-1 (Homo sapiens) (P23443 whole entry, looked up): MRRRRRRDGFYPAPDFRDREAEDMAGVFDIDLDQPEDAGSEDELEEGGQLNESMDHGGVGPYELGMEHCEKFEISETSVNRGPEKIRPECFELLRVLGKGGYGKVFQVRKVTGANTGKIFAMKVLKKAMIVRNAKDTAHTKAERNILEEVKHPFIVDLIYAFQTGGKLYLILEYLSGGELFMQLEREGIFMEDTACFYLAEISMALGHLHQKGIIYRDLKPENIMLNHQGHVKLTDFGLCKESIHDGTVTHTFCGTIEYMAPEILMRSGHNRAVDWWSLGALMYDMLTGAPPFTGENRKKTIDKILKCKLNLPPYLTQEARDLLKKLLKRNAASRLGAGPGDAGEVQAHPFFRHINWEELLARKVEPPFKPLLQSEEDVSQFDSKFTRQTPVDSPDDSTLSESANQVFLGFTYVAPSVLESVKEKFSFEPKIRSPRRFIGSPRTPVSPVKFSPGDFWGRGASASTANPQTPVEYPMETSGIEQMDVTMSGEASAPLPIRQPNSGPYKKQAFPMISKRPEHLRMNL
The test system of a further data set is Rattus norvegicus. As to the kind of experiment: AUC (0 to infinity) in Sprague-Dawley rat at 2 mg/kg, po after 0.25 to 24 hrs. The format is ADME, organism-based. More on the design: dose 2 mg/kg, time infinity, route oral. Conditions: in vivo.
The target of data set [6] is Cyclin-dependent kinase 1/cyclin B1 (Homo sapiens) (UniProt P06493+P14635). Briefly: Inhibition of CDK1/cyclin B (unknown origin) at 10 uM. The format is protein-complex assay.
Chain of Cyclin-dependent kinase 1/cyclin B1 (Homo sapiens) (P06493 whole entry, looked up): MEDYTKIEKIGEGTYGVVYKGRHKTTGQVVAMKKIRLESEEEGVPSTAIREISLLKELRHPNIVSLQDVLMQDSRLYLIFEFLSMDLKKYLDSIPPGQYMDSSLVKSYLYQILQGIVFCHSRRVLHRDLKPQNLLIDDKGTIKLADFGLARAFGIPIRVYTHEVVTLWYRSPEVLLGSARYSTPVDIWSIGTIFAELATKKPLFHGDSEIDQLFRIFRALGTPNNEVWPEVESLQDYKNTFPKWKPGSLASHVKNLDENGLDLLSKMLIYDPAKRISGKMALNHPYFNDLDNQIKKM
Chain of Cyclin-dependent kinase 1/cyclin B1 (Homo sapiens) (P14635 whole entry, looked up): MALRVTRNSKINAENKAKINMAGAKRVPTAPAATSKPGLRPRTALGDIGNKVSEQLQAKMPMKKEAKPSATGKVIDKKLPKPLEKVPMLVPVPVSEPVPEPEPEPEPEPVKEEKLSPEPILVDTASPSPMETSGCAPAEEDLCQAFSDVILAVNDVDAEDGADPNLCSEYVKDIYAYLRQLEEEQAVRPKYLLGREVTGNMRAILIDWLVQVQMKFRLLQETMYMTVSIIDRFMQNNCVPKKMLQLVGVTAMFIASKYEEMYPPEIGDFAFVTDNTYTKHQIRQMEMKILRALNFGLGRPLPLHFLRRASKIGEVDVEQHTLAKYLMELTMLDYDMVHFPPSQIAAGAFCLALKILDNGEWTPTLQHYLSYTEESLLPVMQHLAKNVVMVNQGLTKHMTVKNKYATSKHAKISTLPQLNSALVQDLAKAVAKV
Data set [7] addresses Inhibitor of nuclear factor kappa-B kinase subunit epsilon (Homo sapiens) (UniProt Q14164). As to the kind of experiment: Inhibition of IKKepsilon (unknown origin) at 10 uM.
In data set [8] the target is Aurora kinase A (Homo sapiens) (UniProt O14965). As to the kind of experiment: Inhibition of Aurora A (unknown origin) at 10 uM.
Chain of Aurora kinase A (Homo sapiens) (O14965 whole entry): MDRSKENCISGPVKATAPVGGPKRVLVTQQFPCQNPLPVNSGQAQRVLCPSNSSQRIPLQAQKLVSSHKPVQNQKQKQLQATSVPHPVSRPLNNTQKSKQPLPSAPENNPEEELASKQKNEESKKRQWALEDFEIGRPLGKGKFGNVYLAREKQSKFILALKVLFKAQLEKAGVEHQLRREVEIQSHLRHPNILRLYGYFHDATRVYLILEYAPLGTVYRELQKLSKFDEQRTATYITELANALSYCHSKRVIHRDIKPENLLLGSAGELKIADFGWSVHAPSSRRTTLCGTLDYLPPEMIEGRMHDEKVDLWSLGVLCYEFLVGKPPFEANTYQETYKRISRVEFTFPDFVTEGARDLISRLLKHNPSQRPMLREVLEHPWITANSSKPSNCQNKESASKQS
Data set [9] concerns the target T1, Inhibitor of nuclear factor kappa-B kinase subunit beta (Homo sapiens) (UniProt O14920).
T1 sequence (whole entry): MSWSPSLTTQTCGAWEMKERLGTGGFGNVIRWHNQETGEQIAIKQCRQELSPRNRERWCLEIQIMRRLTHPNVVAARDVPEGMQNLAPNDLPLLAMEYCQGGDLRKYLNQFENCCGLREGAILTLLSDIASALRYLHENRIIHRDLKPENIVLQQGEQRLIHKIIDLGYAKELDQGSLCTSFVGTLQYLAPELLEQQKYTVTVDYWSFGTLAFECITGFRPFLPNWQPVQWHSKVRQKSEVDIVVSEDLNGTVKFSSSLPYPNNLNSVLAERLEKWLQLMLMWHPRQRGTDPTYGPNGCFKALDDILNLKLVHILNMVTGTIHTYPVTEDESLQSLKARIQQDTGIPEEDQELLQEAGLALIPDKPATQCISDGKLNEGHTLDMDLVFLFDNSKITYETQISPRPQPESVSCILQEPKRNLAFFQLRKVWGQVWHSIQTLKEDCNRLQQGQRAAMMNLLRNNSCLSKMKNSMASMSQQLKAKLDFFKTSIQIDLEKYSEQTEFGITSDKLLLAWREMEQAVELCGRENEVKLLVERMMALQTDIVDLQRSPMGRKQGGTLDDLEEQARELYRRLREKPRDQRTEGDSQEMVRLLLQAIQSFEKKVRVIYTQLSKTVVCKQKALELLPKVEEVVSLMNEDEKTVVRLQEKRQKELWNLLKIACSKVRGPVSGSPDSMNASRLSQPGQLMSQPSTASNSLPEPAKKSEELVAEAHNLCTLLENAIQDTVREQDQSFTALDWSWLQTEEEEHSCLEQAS
Briefly: Inhibition of IKKbeta (unknown origin) at 10 uM by TR-FRET assay.

Data set [10] is described as follows: Half life in Sprague-Dawley rat at 2 mg/kg, po after 0.25 to 24 hrs. Type of data set: ADME, organism-based. Conditions: in vivo.
In data set [11] the target is Angiopoietin-1 receptor (Homo sapiens) (UniProt Q02763). As to the kind of experiment: Inhibition of TIE2 (unknown origin) at 10 uM.
Chain of Angiopoietin-1 receptor (Homo sapiens) (Q02763 whole entry): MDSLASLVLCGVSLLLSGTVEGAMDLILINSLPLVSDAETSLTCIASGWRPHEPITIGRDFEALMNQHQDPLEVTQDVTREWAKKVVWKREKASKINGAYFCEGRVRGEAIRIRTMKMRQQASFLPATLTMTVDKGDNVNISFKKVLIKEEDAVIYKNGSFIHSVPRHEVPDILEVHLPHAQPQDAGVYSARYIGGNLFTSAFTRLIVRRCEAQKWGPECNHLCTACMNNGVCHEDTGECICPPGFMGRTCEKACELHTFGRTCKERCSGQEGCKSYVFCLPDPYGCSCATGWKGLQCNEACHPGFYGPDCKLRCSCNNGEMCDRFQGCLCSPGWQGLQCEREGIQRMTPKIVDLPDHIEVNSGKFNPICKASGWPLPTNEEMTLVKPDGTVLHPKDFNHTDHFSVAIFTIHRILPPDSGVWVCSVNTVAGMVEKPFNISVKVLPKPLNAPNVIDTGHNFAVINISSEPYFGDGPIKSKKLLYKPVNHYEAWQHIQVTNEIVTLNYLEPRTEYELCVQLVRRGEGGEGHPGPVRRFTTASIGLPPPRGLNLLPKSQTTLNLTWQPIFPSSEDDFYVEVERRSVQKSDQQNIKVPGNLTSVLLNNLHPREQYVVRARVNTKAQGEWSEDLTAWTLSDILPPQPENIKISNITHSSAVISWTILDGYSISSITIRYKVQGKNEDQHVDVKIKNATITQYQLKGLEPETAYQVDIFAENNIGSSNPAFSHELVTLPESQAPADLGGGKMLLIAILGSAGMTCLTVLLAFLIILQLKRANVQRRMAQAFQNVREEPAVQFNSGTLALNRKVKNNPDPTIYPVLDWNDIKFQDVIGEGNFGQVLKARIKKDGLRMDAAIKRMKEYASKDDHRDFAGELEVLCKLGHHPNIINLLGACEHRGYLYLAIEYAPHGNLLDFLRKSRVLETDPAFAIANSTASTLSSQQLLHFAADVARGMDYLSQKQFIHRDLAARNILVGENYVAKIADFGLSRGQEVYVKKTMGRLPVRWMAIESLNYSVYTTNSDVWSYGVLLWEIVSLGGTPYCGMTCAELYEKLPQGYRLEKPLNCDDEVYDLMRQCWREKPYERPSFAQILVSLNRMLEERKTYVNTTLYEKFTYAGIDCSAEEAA
The subject of a further data set is Mus musculus. As to the kind of experiment: Toxicity in female ICR mouse assessed as average body weight at 2000 mg/kg, po administered for 2 days measured 3 hrs post last dose (reference value: 18.9 +/- 0.9 g). The format is organism-based. Conditions: in vivo.
Data set [12] concerns the target T1, Inhibitor of nuclear factor kappa-B kinase subunit beta (Homo sapiens). Briefly: Non-competitive inhibition of IKKbeta (unknown origin) using FAM-IkBalpha derived peptide as substrate at 0.5 to 1 uM incubated for 1 hr measured after 15 hrs by Lineweaver-Burk plot method in the presence of 0.625 to 10 uM ATP.
Data set [13] deals with CDK9/cyclin T1 (Homo sapiens) (UniProt O60563+P50750). Briefly: Inhibition of CDK9/cyclin T1 (unknown origin) at 10 uM. The format is protein-complex assay.

Data on one compound can be found in ChEMBL document CHEMBL3763027, “Identification and characterization of potent, selective and metabolically stable IKKβ inhibitor” (Bioorg Med Chem Lett, 2016).

Active and inactive are the calls of the source. No cut-off for these calls is given here.

Chain of Inhibitor of nuclear factor kappa-B kinase subunit epsilon (Homo sapiens) (Q14164 whole entry): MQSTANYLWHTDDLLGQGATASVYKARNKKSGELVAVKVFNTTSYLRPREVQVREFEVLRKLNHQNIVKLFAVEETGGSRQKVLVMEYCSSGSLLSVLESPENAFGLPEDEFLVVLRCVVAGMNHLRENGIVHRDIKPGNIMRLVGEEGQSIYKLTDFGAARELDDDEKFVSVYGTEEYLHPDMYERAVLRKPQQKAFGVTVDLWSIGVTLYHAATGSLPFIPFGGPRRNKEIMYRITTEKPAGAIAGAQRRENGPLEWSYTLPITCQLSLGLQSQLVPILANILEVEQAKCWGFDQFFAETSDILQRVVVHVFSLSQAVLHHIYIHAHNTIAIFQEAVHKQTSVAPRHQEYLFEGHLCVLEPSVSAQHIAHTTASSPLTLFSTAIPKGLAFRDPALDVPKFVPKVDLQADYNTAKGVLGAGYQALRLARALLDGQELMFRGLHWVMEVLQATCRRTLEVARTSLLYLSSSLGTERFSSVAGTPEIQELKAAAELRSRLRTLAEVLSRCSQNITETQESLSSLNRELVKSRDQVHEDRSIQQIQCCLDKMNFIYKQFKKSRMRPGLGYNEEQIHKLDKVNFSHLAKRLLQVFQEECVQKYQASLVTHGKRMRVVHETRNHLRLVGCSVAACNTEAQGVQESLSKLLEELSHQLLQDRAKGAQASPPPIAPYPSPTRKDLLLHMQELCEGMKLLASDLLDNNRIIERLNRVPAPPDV
Chain of Mitogen-activated protein kinase 8 (Homo sapiens) (P45983 whole entry): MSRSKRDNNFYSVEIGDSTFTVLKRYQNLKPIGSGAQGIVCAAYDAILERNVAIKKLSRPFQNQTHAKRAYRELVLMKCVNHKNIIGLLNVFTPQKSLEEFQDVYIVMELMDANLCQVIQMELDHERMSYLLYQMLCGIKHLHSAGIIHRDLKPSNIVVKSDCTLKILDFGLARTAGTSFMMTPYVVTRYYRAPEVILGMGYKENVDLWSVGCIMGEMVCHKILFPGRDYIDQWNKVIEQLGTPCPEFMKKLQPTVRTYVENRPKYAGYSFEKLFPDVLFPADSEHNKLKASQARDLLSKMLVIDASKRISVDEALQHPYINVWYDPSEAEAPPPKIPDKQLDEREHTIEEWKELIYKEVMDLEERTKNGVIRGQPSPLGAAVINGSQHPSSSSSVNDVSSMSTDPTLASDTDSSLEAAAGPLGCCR
Chain of Serine/threonine-protein kinase pim-1 (Homo sapiens) (P11309 whole entry, looked up): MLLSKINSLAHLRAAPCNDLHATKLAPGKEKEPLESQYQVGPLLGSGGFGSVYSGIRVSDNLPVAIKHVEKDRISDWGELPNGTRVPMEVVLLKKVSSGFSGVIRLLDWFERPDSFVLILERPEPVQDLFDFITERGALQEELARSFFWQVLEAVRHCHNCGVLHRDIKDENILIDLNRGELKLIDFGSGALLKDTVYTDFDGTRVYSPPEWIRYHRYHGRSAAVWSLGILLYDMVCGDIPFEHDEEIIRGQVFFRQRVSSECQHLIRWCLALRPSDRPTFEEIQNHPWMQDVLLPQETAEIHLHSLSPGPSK
Chain of Serine/threonine-protein kinase Chk1 (Homo sapiens) (O14757 whole entry): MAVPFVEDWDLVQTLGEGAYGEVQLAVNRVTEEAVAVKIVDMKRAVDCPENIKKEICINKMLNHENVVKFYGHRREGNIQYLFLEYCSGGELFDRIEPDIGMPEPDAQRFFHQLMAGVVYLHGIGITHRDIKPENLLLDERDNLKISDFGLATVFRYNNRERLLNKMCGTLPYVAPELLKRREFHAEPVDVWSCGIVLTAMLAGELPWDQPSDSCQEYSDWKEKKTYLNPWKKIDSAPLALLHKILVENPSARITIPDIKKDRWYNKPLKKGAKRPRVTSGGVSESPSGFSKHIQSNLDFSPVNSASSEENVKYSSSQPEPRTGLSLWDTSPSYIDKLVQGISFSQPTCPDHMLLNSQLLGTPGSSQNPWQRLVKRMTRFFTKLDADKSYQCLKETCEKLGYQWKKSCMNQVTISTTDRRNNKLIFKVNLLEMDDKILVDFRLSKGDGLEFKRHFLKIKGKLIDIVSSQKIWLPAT

As to `CN1CCN(CCCOc2ccc(N3C(=O)/C(=C/c4ccc(Oc5ccc(F)cc5)cc4)SC3=S)cc2)CC1`, the inhibition in [1] is 0%; in data set [3] it was 0%; in data set [4], 2%; in [5], 24.9%; in data set [6] it was 3.1%; in data set [7], 0%. Also, the inhibition in data set [8] is 0%; in [9], 93.3%; in [11], 57.5%; in data set [13], 0%. The compound also showed a Vd in [2] of 44.3 L/kg. In the data set with Rattus norvegicus, this compound came in with an AUC of 79.4 ng·h/mL. In addition, the half-life in data set [10] was 5.81 h. In addition, the Activity in the data set on Mus musculus amounted to 21.7 g. For the same compound, the inhibition entry in [12] was “Active”.
